According to paper PMC9814779, “A triple farnesoid X receptor and peroxisome proliferator-activated receptor α/δ activator reverses hepatic fibrosis in diet-induced NASH in mice” (Communications Chemistry, 2020):

Assays:
[1] = molecular target: T1, human PPARδ ligand-binding domain (Gal4 chimera) (Homo sapiens, UniProt Q03181); assay: Gal4 hybrid reporter gene assay, PPARδ; type: cell-based; design: Emax: dose or concentration left out as unconfirmed
T1 construct: coding for the hinge region and LBD of the canonical isoform of the respective nuclear receptor; expressed in transfected cells; host or cells: HEK293T
T1 sequence (Q03181 211-439 limits assumed): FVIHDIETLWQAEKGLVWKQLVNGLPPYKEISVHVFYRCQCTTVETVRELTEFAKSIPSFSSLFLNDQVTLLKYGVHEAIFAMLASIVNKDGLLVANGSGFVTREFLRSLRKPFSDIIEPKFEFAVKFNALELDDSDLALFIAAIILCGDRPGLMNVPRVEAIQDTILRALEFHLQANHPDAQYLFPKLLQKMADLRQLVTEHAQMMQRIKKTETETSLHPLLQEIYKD

[2] = molecular target: T2, human PPARα ligand-binding domain (Gal4 chimera) (Homo sapiens, UniProt Q07869); assay: Gal4 hybrid reporter gene assay, PPARα; type: cell-based; design: Emax: dose or concentration left out as unconfirmed
T2 construct: coding for the hinge region and LBD of the canonical isoform of the respective nuclear receptor; expressed in transfected cells; host or cells: HEK293T
T2 sequence (Q07869 239-466 limits assumed): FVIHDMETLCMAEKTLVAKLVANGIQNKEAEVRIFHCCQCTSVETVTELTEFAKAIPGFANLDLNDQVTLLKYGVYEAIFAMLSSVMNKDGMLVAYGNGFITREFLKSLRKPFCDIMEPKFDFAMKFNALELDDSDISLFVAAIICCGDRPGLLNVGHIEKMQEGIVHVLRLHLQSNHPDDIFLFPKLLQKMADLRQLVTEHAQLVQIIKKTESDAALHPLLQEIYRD

[3] = system: nuclear receptors related to PPARs and FXR (LXRα/β, RXRα/β/γ, RARα/β/γ, VDR, CAR); settings: previous studies; cited from earlier work
[4] = molecular target: T3, human FXR:retinoid X receptor (RXR) heterodimer (Homo sapiens, UniProt Q96RI1); assay: Full-length FXR reporter gene assay (BSEP response element) in HeLa cells; type: cell-based; design: Emax: dose or concentration left out as unconfirmed; settings: HeLa
T3 construct: pcDNA3-hFXR[32] and pSG5-hRXR[33] served for receptor overexpression in the full-length FXR assay; expressed in transfected cells; host or cells: HeLa

[5] = molecular target: T4, human PPARγ ligand-binding domain (Gal4 chimera) (Homo sapiens, UniProt P37231); assay: Gal4 hybrid reporter gene assay, PPARγ; type: cell-based; design: Emax: dose or concentration left out as unconfirmed
T4 construct: coding for the hinge region and LBD of the canonical isoform of the respective nuclear receptor; expressed in transfected cells; host or cells: HEK293T
T4 sequence (P37231 238-503 limits assumed): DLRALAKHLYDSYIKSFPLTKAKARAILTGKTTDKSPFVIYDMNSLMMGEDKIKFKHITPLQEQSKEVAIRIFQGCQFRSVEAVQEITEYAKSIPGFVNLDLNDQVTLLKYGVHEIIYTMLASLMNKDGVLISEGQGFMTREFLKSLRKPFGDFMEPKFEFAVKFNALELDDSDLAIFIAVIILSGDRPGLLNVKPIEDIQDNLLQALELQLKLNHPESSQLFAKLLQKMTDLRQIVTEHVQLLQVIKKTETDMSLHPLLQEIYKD

[6] = system: diet-induced mouse model of NASH; settings: cited from earlier work
[7] = system: HEK293T and U2OS cells; assay: Multiplex high-content live-cell toxicity assay; type: cell-based; settings: seven concentrations between 100 nM and 100 µM; 2, 12 and 24 h
Method: Before proof-of-concept in vivo evaluation, we profiled stability and cytotoxicity of the triple modulator 41 in vitro. […] To determine cytotoxicity, we employed a multiplex high-content life-cell imaging screen[24] on HEK293T and U2OS cells. For this, the cells were treated with fluorescent probes to detect Annexin V as apoptosis marker (Annexin V Alexa488), dead cells (Yo-Pro3), and DNA/nucleus (Hoechst33342). Cells were then incubated with 41, OCA, or elafibranor at seven concentrations between 100 nM and 100 µM, and cell health was determined by fluorescence imaging after 2, 12, and 24 h (Fig. 6g–i and Supplementary Fig. 5).
Supplementary Methods for in Vitro Characterization
Cytotoxicity was assessed in a high content screen on two different cell lines, HEK293T (ATCC® CRL-1573™) and U2OS (ATCC®HTB-96™), essentially as described previously6. In brief, cells were cultured in DMEM plus L-Glutamine (high glucose) supplemented with 10 % FBS (Gibco) and Penicillin/Streptomycin (Gibco). […]
After 2 h, 12 h and 24 h, cellular shape and fluorescence was analyzed on an automated, high-content confocal microscope (CQ1, Yokogawa). […]
50 ms, 40%; bright field, 300ms, 100% transmission, one centered field per well, 7 z stacks per well with 55 µm spacing. Images were analyzed with the Pathfinder software (Yokogawa). Cells were detected and gated as previously described6. […]
The solubilized test compound (5 μL, final concentration 10 μM in phosphate buffer (0.1 M, pH 7.4)) was preincubated at 37 °C in 432 μL of phosphate buffer (0.1 M, pH 7.4) together with a 50 μL NADPH regenerating system (30 mM glucose-6-phosphate, 4 U/mL glucose-6-phosphate dehydrogenase, 10 mM NADP, 30 mM MgCl2). […] The supernatants were analyzed and test compound was quantified by HPLC: mobile phase: MeOH 83%/H2O 17%/formic acid 0.1%; flow-rate: 1 mL/min; stationary phase: MultoHigh Phenyl phase, 5 μm, 250×4, precolumn, phenyl, 5 μm, 20×4; detection wavelength: 330 and 254 nm; injection volume: 50 μL. […]

[8] = system: FXR- and PPAR-regulated gene expression in HepG2 cells; assay: FXR- and PPAR-regulated gene expression in HepG2 cells (qRT-PCR); type: cell-based, human; settings: HepG2, 1 µM, 12 h, vs. vehicle-treated cells
Method: HepG2 cells (DSMZ) were grown in DMEM high glucose, supplemented with 10% FCS, 1 mM SP, penicillin (100 U/mL), and streptomycin (100 μg/mL) at 37 °C and 5% CO2 and seeded in 6-well plates (2 × 10^6 per well). After 24 h, medium was changed to Minimal Essential Medium supplemented with 1% charcoal-stripped FCS, penicillin (100 U/mL), streptomycin (100 μg/mL), and 2 mM L-glutamine. After an additional 24 h, cells were incubated with test compound 41 (0.1 µM, 0.3 µM, 1 μM), OCA (1 μM), or elafibranor (1 µM) dissolved in the same medium with 0.1% DMSO or medium with 0.1% DMSO alone as untreated control for 12 h, harvested, washed with cold phosphate-buffered saline (PBS), and then directly used for RNA extraction. C2C12 cells (American Type Culture Collection, ATCC) were grown in DMEM high glucose, supplemented with 10% FCS, 1 mM SP, penicillin (100 U/mL), and streptomycin (100 μg/mL) at 37 °C and 5% CO2 and seeded in 6-well plates (1 × 10^6 per well). Upon reaching confluence, medium was changed to Eagle’s Minimal Essential Medium supplemented with 2% horse serum, penicillin (100 U/mL), streptomycin (100 μg/mL), and 2 mM L-glutamine. Cells were then differentiated in this medium for 5 days before incubation with test compounds 41 (1 μM) or L165,041 (1 μM) dissolved in the same medium with 0.1% DMSO or medium with 0.1% DMSO alone as untreated control for 8 h. Cells were harvested, washed with cold PBS, and then directly used for RNA extraction. Total RNA was extracted from HepG2 cells or C2C12 cells using the total RNA Mini Kit (R6834-02, Omega Bio-Tek, Inc., Norcross, GA, USA). Two micrograms of extracted RNA were then reverse-transcribed into cDNA with the High-Capacity cDNA Reverse Transcription Kit (4368814, Thermo Fischer Scientific, Inc.). FXR- and PPAR-regulated gene expression was then studied by quantitative real-time PCR (qRT-PCR) analysis with a StepOnePlus System (Life Technologies, Carlsbad, CA, USA) using PowerSYBRGreen (Life Technologies; 12.5 μL per well). Each sample was set up in duplicates and repeated in four independent experiments. Data were analyzed by the comparative ΔΔCT method with glyceraldehyde 3-phosphate dehydrogenase (GAPDH) as reference gene. The following primers were used for HepG2 cells (human genes): hGAPDH: 5 ′-ATATGATTCCACCCATGGCA (fw), 5′-GATGATGACCCTTTTGGCTC (rev); hSHP: 5′-GCTGTCTGGAGTCCTTCTGG (fw), 5′-CCAATGATAGGGCGAAAGAAGAG (rev); hCYP7A1: 5′-CACCTTGAGGACGGTTCCTA (fw), 5′-CGATCCAAAGGGCATGTAGT (rev); hBSEP: 5′-CATGGTGCAAGAAGTGCTGAGT (fw), 5′-AAGCGATGAGCAACTGAAATGAT (rev); hACOX: 5′-ACT CGC AGC CAG CGT TAT G (fw), 5′-AGG GTC AGC GAT GCC AAA C (rev); hPDK4: 5′-AGAGCCTGATGGATTTGGTG (fw), 5′-GCTTGGGTTTCCTGTCTGTG (rev); hCPT1: 5′-ACAGTCGGTGAGGCCTCTTAT (fw), 5′-TCTTGCTGCCTGAATGTGAGT (rev); hFGF21: 5′-ATGGATCGCTCCACTTTGACC (fw), 5′-GGGCTTCGGACTGGTAAACAT (rev). The following primers were used for C2C12 cells (murine genes)[36]: mGAPDH: 5′-CGACTTCAACAGCAACTCCCACTCTTCC (fw), 5′-TGGGTGGTCCAGGGTTTCTTACTCCTT (rev); mPCK: 5′-TGTTTACTGGGAAGGCATCG (fw), 5′-CAGAATCTCGAGTTGGGATGG (rev); mGLUT3: 5′-CGTCCTTGAAGATTCCTGTTGA (fw), 5′-GTC ACC CAA CTA CGT CCA G (rev); mLPL: 5′-GTCAGGTTCTCTCTTGTACAGG (fw), 5′-TCTAACTGCCACTTCAACCAC (rev).

[9] = system: STAM NASH; settings: cited from earlier work
[10] = system: choline-deficient, L-amino acid-defined, high-fat diet-induced NASH in mice; design: method as in PMID 29164820; settings: cited from earlier work
[11] = system: (foz/foz) mice under atherogenic diet; settings: without a pronounced effect on hepatic inflammation; cited from earlier work

T3 sequence (P19793 whole entry): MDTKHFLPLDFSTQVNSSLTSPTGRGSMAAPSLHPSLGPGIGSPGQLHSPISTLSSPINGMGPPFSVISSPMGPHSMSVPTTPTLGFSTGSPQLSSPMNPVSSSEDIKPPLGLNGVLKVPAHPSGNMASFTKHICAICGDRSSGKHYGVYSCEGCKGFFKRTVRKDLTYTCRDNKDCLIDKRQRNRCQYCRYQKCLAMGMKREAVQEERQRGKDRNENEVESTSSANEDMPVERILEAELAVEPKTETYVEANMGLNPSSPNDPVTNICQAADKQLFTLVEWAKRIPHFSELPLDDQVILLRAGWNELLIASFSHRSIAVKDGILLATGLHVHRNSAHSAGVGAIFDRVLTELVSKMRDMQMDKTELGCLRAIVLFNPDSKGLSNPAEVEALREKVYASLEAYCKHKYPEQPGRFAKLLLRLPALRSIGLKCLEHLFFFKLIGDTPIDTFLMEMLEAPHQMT
T3 sequence (Q96RI1 whole entry): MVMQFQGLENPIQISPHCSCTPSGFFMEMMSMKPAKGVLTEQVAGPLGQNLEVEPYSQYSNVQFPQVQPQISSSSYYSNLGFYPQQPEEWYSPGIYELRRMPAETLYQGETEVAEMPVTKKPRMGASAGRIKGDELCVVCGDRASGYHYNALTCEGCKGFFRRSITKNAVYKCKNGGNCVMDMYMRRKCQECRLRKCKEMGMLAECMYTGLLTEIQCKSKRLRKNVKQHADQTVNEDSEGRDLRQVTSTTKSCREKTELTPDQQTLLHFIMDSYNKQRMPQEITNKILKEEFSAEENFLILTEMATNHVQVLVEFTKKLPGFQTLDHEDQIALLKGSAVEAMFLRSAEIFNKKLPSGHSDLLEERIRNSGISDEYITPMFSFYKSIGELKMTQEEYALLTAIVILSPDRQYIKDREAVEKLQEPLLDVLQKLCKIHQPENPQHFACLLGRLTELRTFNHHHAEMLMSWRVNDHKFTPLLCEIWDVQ

## O=C(O)Cc1cccc(NC(=O)c2ccccc2NC(=O)c2ccc3ccccc3c2)c1 [compound 5]
[1]; EC50 [μM] PPARδ, HEK293T, mean ± SEM, n = 3
  EC50: 4.9 ± 0.9 µM
[1]; read-out: max. rel. act. PPARδ
  Emax: 34%
[2]; EC50 [μM] PPARα, HEK293T, mean ± SEM, n = 3
  EC50: 5 ± 1 µM
[2]; read-out: max. rel. act. PPARα
  Emax: 37%
[3]
  selectivity over related nuclear receptors: selective over related nuclear receptors
[4]; read-out: max. rel. act. FXR
  Emax: 21%
[4]; mean ± SEM, n = 3, read-out: EC50 [μM] FXR
  EC50: 2.5 ± 0.2 µM
[5]
  EC50: 16 ± 1 µM
[5]; read-out: max. rel. act. PPARγ
  Emax: 14%

## CSc1ccc(C(=O)/C=C/c2cc(C)c(OC(C)(C)C(=O)O)c(C)c2)cc1 [elafibranor]
[6]; OCA 30 mg/kg, OCA/elafibranor 30 mg/kg + 10 mg/kg, elafibranor 10 mg/kg
  anti-steatotic effect: less pronounced
[6]; equivalent, previously reported study
  anti-fibrotic activity: only weak anti-fibrotic activity compared to vehicle
[7]
  cytotoxicity (cell health, apoptosis, necrosis, lysis): non-toxic up to 100 µM concentration over 24 h
[8]
  mRNA expression of FXR-regulated genes (BSEP, SHP, CYP7A1): no effect on FXR activity
  mRNA expression of PPAR-regulated genes (ACOX, PDK4, CPT1, FGF21): strongly promoted the expression of PPAR-regulated genes

## CC[C@@H](Oc1cccc(CN(CCCOc2ccc(OC)cc2)c2nc3ccccc3o2)c1)C(=O)O [pemafibrate]
[9]
  effects in STAM NASH: counter hepatocyte ballooning in STAM NASH without affecting hepatic steatosis and inflammation

## CCO[C@@H](Cc1ccc(OCCn2c(C)ccc2-c2ccc(SC)cc2)cc1)C(=O)O [saroglitazar]
[10]
  anti-steatosis efficacy: stronger anti-steatosis efficacy than the selective agents fenofibrate (PPARα) and pioglitazone (PPARγ)

## CCO[C@H](COc1ccc(C(F)(F)F)cc1)CSc1ccc(OCC(=O)O)c(C)c1 [seladelpar]
[11]
  effects in (foz/foz) mice under atherogenic diet: improved steatosis and hepatocyte ballooning
